The target of the assay is recombinant human SYK (GST-hSYK fusion protein) (Homo sapiens, UniProt P43405). The assay can be described thus: biochemical. The note with it: rhSYK Activity, Table 54D.

Where only a bound is given, the exact number is not on record here.

From the text: Homogeneous Time-Resolved Fluorescence (HTRF) Assay for the Recombinant Human SYK Enzyme:

On to `Cc1cc(Nc2nccc(C(F)(F)F)n2)cc(-c2cnc(C3(O)CCCN(C(=O)Cc4ccccn4)CC3)s2)c1` (centres unmarked) [Example 54D-82], for which the IC50 was below 100 nM.
In the case of `Cc1cc(Nc2nccc(C(F)(F)F)n2)cc(-c2cnc(C3(O)CCCN(C(=O)CS(C)(=O)=O)CC3)s2)c1` (centres unmarked) [Example 54D-83] it was below 100 nM.
As for `Cc1cc(Nc2nccc(C(F)(F)F)n2)cc(-c2cnc(C3(O)CCCN(C(=O)c4ccc(O)cc4)CC3)s2)c1` (centres unmarked) [Example 54D-84], the figure is below 100 nM; as for `Cc1cc(Nc2nccc(C(F)(F)F)n2)cc(-c2cnc(C3(O)CCCN(C(=O)c4ccc(O)cn4)CC3)s2)c1` (centres unmarked) [Example 54D-85], below 100 nM; as for `Cc1cc(Nc2nccc(C(F)(F)F)n2)cc(-c2cnc(C3(O)CCCN(C(=O)c4cccc(O)n4)CC3)s2)c1` (centres unmarked) [Example 54D-86], below 100 nM.
`Cc1cc(Nc2nccc(C(F)(F)F)n2)cc(-c2cnc(C3(O)CCCN(C(=O)c4cc(O)ccn4)CC3)s2)c1` (centres unmarked) [Example 54D-87]: the IC50 is below 100 nM.
As for `Cc1cc(Nc2nccc(C(F)(F)F)n2)cc(-c2cnc(C3(O)CCCN(C(=O)CCc4cn[nH]c4)CC3)s2)c1` (centres unmarked) [Example 54D-88], the IC50 was below 100 nM.
On to `Cc1cc(Nc2nccc(C(F)(F)F)n2)cc(-c2cnc(C3(O)CCCN(C(=O)CCC(F)(F)F)CC3)s2)c1` (centres unmarked) [Example 54D-90], for which the IC50 is below 100 nM.
For the molecule `Cc1cc(Nc2nccc(C(F)(F)F)n2)cc(-c2cnc(C3(O)CCCN(C(=O)CN4CCCC4=O)CC3)s2)c1` (centres unmarked) [Example 54D-91], the IC50 was below 100 nM.
`Cc1cc(Nc2nccc(C(F)(F)F)n2)cc(-c2cnc(C3(O)CCCN(C(=O)C4CCCC(=O)N4)CC3)s2)c1` (centres unmarked) [Example 54D-92]: the half-inhibitory concentration (IC50) was below 100 nM.
`Cc1cc(Nc2nccc(C(F)(F)F)n2)cc(-c2cnc(C3(O)CCCN(C(=O)Cc4n[nH]c(=O)[nH]4)CC3)s2)c1` (centres unmarked) [Example 54D-93]: the IC50 was below 100 nM.
As for `COC(=O)C1(C(=O)N2CCCC(O)(c3ncc(-c4cc(C)cc(Nc5nccc(C(F)(F)F)n5)c4)s3)CC2)CC1` (centres unmarked) [Example 54D-95], the figure is below 100 nM; as for `Cc1cc(Nc2nccc(C(F)(F)F)n2)cc(-c2cnc(C3(O)CCCN(C(=O)CC4CCOCC4)CC3)s2)c1` (centres unmarked) [Example 54D-96], below 100 nM.
In the case of `Cc1cc(Nc2nccc(C(F)(F)F)n2)cc(-c2cnc(C3(O)CCCN(C(=O)C(O)C(F)(F)F)CC3)s2)c1` (centres unmarked) [Example 54D-97] it was below 100 nM; in that of `Cc1cc(Nc2nccc(C(F)(F)F)n2)cc(-c2cnc(C3(O)CCCN(C(=O)CCC(=O)N(C)C)CC3)s2)c1` (centres unmarked) [Example 54D-98], below 100 nM.
Regarding `C#Cc1ccc(C(=O)N2CCCC(O)(c3ncc(-c4cc(C)cc(Nc5nccc(C(F)(F)F)n5)c4)s3)CC2)cc1` (centres unmarked) [Example 54D-99], the IC50 is below 100 nM.
`CCC(CO)(CO)C(=O)N1CCCC(O)(c2ncc(-c3cc(C)cc(Nc4nccc(C(F)(F)F)n4)c3)s2)CC1` (centres unmarked) [Example 54D-102]: the IC50 is below 100 nM.
In the case of `Cc1cc(Nc2nccc(C(F)(F)F)n2)cc(-c2cnc(C3(O)CCCN(C(=O)c4cc(O)ccc4F)CC3)s2)c1` (centres unmarked) [Example 54D-104], the IC50 was below 100 nM.
In the case of `Cc1cc(Nc2nccc(C(F)(F)F)n2)cc(-c2cnc(C3(O)CCCN(C(=O)c4ccnc(Cl)n4)CC3)s2)c1` (centres unmarked) [Example 54D-105], the IC50 is below 100 nM.
In the case of `CC(=O)Oc1ccc(C(=O)N2CCCC(O)(c3ncc(-c4cc(C)cc(Nc5nccc(C(F)(F)F)n5)c4)s3)CC2)cc1` (centres unmarked) [Example 54D-106], the IC50 was below 100 nM.
`COC(=O)C1CCC(C(=O)N2CCCC(O)(c3ncc(-c4cc(C)cc(Nc5nccc(C(F)(F)F)n5)c4)s3)CC2)CC1` (centres unmarked) [Example 54D-111]: the 50% inhibitory concentration (IC50) is below 100 nM.
In the case of `COC(=O)C(O)(CC(=O)N1CCCC(O)(c2ncc(-c3cc(C)cc(Nc4nccc(C(F)(F)F)n4)c3)s2)CC1)C(F)(F)F` (centres unmarked) [Example 54D-112] it was below 100 nM; in that of `Cc1cc(Nc2nccc(C(F)(F)F)n2)cc(-c2cnc(C3(O)CCCN(S(=O)(=O)NC(=O)OC(C)(C)C)CC3)s2)c1` (centres unmarked) [Example 54D-114], below 100 nM.

What is called IC50 is the concentration needed to halve the response being measured.

Values taken from patent US8551984B2, “Aminopyrimidines as SYK inhibitors” (Merck Sharp & Dohme Corp., priority 2009, dated 2013).
